The text below walks through data of patent publication US7427625B2, “Substituted thiatriazaacenaphthylene-6-carbonitrile kinase inhibitors” (Janssen Pharmaceutica, N.V., priority 2006, dated 2008).

Common to all, as to assay type: biochemical
Assay [1] addresses T1, EGFR (Homo sapiens, UniProt P00533).
T1 construct: The intracellular portion of EGFR started at nucleotide 2189 (corresponding to amino acid 667) and ended at the termination codon; made in house; host or cells: Sf9 insect cells (baculovirus)
The assay can be described thus: EGFR Kinase Assay. The settings on record: for inhibition at 2 µM: test concentration of 2 μM, read-out: EGFR percent inhibition. In outline: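 GST-fused EGFR intracellular domain (aa 667 to end), Sf9-expressed, phosphorylating biotinylated polyGluTyr with 5 μM ATP plus γ-33P ATP in Tris pH 8.0, MgCl2, vanadate, 1 mM DTT; 1 h, 30 °C, streptavidin Flashplate scintillation read. Triplicate 16-point half-log series from 200 uM; IC50 from % inhibition vs log concentration, else % inhibition at 2 μM.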

Assay [2] addresses T2, VEGF-R2 (Rattus norvegicus, UniProt O08775).
T2 construct: polyhistidine (N)
The assay can be described thus: VEGF-R2 Screening Assay.

For assay [3], the target named is T3, HER-2 (Homo sapiens, UniProt P04626).
T3 construct: the nucleotides encoding amino acids 679 to 1255 of HER-2; purchased Proqinase (Freiburg, Germany)
The assay can be described thus: HER-2 Kinase Assay. The method, boiled down:
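GST-HIS6-thrombin fusion of HER-2 residues 679–1255, assayed with biotinylated polyGluTyr, 1 μM ATP plus γ-33P-ATP, Mg2+, Mn2+ and vanadate in Hepes pH 7.5 for 1 h at 30 °C. Incorporation read by streptavidin Flashplate scintillation counting; IC50 values, or % inhibition at 1 μM.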

T1 sequence (P00533 669-1210 limits assumed): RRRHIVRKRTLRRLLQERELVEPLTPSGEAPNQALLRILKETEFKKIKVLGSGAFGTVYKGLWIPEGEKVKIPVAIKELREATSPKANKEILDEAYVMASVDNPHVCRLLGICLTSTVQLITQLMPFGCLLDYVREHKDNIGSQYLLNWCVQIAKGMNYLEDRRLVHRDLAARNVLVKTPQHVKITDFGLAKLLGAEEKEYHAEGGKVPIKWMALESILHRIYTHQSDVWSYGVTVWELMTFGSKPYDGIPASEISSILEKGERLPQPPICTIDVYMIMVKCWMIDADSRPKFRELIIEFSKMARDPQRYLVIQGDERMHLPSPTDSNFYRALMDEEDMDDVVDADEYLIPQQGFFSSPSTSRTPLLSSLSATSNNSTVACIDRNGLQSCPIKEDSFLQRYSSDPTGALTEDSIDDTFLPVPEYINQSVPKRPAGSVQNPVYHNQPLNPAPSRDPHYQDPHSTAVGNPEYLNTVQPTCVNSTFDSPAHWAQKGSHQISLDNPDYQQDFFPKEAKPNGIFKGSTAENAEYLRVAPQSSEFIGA
T2 sequence (O08775 786-1343): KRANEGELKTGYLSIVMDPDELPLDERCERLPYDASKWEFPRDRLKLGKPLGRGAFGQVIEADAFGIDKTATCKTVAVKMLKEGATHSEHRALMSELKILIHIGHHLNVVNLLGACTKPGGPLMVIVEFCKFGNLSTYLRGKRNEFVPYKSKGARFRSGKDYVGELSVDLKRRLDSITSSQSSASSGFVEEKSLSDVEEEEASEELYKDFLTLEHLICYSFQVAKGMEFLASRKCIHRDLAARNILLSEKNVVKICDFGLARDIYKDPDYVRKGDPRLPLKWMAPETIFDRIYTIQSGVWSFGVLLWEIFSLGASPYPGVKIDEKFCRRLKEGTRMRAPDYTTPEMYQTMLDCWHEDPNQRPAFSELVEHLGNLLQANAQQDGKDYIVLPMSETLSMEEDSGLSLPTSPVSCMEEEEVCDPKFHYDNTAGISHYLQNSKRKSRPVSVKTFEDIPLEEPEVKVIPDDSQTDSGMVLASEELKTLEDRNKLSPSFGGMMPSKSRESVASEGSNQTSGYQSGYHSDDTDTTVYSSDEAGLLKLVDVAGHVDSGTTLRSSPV
T3 sequence (P04626 679-1255): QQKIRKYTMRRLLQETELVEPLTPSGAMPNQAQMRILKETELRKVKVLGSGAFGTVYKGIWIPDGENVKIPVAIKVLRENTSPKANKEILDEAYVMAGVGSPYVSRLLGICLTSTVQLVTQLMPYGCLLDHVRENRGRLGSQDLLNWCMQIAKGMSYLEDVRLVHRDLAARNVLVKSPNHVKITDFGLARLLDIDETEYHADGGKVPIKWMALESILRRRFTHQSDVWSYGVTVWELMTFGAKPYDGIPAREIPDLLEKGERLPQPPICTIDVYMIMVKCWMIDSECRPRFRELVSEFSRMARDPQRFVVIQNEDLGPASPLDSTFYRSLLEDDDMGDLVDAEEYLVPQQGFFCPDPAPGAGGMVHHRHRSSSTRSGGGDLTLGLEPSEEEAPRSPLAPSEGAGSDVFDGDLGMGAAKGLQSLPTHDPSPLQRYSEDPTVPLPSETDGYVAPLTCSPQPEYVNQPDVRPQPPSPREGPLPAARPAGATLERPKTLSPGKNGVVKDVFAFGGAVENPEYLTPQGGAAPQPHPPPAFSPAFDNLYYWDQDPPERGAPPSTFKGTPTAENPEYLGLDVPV

One may read the inhibition as the drop in the measured response relative to a control, in per cent. By IC50 is commonly meant the midpoint of a concentration-inhibition curve. Read a high IC50 as lower potency. On to `N#Cc1cnc2sc(C(=O)Nc3ccc(CCN4CCOCC4)cc3)c3c2c1N(c1c(Cl)ccc2c1OCO2)C(=O)N3` [Cpd 13, 5-(5-chloro-benzo[1,3]dioxol-4-yl)-6-cyano-4-oxo-4,5-dihydro-3H-1-thia-3,5,8-triaza-acenaphthylene-2-carboxylic acid [4-(2-morpholin-4-yl-ethyl)-phenyl]-amide], for which the inhibition at 2 µM in assay [1] was 23%. Moreover, the IC50 in assay [2] was greater than 10 µM; in assay [3], greater than 1 µM.

Take `CN1CCC(NC(=O)c2sc3ncc(C#N)c4c3c2NC(=O)N4c2c(Cl)ccc3c2OCO3)CC1` [Cpd 10, 5-(5-chloro-benzo[1,3]dioxol-4-yl)-6-cyano-4-oxo-4,5-dihydro-3H-1-thia-3,5,8-triaza-acenaphthylene-2-carboxylic acid (1-methyl-piperidin-4-yl)-amide]: the IC50 in assay [1] is 3.96 µM; in assay [2], roughly 100 µM; in assay [3], 7.16 µM.

For the compound `N#Cc1cnc2sc(C(=O)Nc3ccc(CN4CCCCC4)cc3)c3c2c1N(c1ccc(Oc2ccccc2)cc1)C(=O)N3` [Cpd 49, 6-cyano-4-oxo-5-(4-phenoxy-phenyl)-4,5-dihydro-3H-1-thia-3,5,8-triaza-acenaphthylene-2-carboxylic acid (4-piperidin-1-ylmethyl-phenyl)-amide], the values for the IC50 in assay [1], in assay [2] and in assay [3] were 0.224 µM, greater than 100 µM and 0.836 µM, respectively.

For `COc1cc(NC(=O)c2sc3ncc(C#N)c4c3c2NC(=O)N4c2ccc(Oc3ccccc3)cc2)ccc1CN1CCOCC1` [Cpd 45, 6-cyano-4-oxo-5-(4-phenoxy-phenyl)-4,5-dihydro-3H-1-thia-3,5,8-triaza-acenaphthylene-2-carboxylic acid (3-methoxy-4-morpholin-4-ylmethyl-phenyl)-amide], the results for the IC50 in assay [1], in assay [2] and in assay [3] were 0.093 µM, greater than 100 µM and 0.0836 µM, respectively.

Regarding `COc1cc(N2C(=O)Nc3c(C(=O)Nc4ccc(CN5CCOCC5)cc4)sc4ncc(C#N)c2c34)c(Cl)cc1Cl` [Cpd 5, 6-cyano-5-(2,4-dichloro-5-methoxy-phenyl)-4-oxo-4,5-dihydro-3H-1-thia-3,5,8-triaza-acenaphthylene-2-carboxylic acid (4-morpholin-4-ylmethyl-phenyl)-amide], the inhibition at 2 µM in assay [1] is 1%. The IC50 is greater than 100 µM in assay [2] and greater than 10 µM in assay [3].

`CN(C)C1CCN(Cc2ccc(NC(=O)c3sc4ncc(C#N)c5c4c3NC(=O)N5c3c(Cl)ccc4c3OCO4)cc2)CC1` [Cpd 42, 5-(5-chloro-benzo[1,3]dioxol-4-yl)-6-cyano-4-oxo-4,5-dihydro-3H-1-thia-3,5,8-triaza-acenaphthylene-2-carboxylic acid [4-(4-dimethylamino-piperidin-1-ylmethyl)-phenyl]-amide]: the IC50 was 0.85 µM in assay [1], greater than 100 µM in assay [2] and greater than 1 µM in assay [3].

Consider `COC1CCN(Cc2ccc(NC(=O)c3sc4ncc(C#N)c5c4c3NC(=O)N5c3c(Cl)ccc4c3OCO4)cc2)CC1` [Cpd 18, 5-(5-chloro-benzo[1,3]dioxol-4-yl)-6-cyano-4-oxo-4,5-dihydro-3H-1-thia-3,5,8-triaza-acenaphthylene-2-carboxylic acid [4-(4-methoxy-piperidin-1-ylmethyl)-phenyl]-amide], for which, in assay [1], the inhibition at 2 µM is 38%. In addition, the IC50 in assay [2] is greater than 10 µM; in assay [3], 1.23 µM.

Turning to `N#Cc1cnc2sc(C(=O)Nc3ccc(CCN4CCCCC4)cc3)c3c2c1N(c1ccc(Oc2ccccc2)cc1)C(=O)N3` [Cpd 48, 6-cyano-4-oxo-5-(4-phenoxy-phenyl)-4,5-dihydro-3H-1-thia-3,5,8-triaza-acenaphthylene-2-carboxylic acid [4-(2-piperidin-1-yl-ethyl)-phenyl]-amide], the inhibition at 2 µM in assay [1] came to 39%. Besides, the IC50 was greater than 100 µM in assay [2] and greater than 10 µM in assay [3].

With `CC(C)(C)OC(=O)NC1CCN(Cc2ccc(NC(=O)c3sc4ncc(C#N)c5c4c3NC(=O)N5c3c(Cl)ccc4c3OCO4)cc2)CC1` [Cpd 46, [1-(4-{[5-(5-chloro-benzo[1,3]dioxol-4-yl)-6-cyano-4-oxo-4,5-dihydro-3H-1-thia-3,5,8-triaza-acenaphthylene-2-carbonyl]-amino}-benzyl)-piperidin-4-yl]-carbamic acid tert-butyl ester], the values for the IC50 in assay [1], in assay [2] and in assay [3] were 0.152 µM, greater than 100 µM and 0.134 µM, respectively.

As for `CC1CCN(Cc2ccc(NC(=O)c3sc4ncc(C#N)c5c4c3NC(=O)N5c3c(Cl)ccc4c3OCO4)cc2)CC1` [Cpd 19, 5-(5-chloro-benzo[1,3]dioxol-4-yl)-6-cyano-4-oxo-4,5-dihydro-3H-1-thia-3,5,8-triaza-acenaphthylene-2-carboxylic acid [4-(4-methyl-piperidin-1-ylmethyl)-phenyl]-amide], the IC50 in assay [1] was 0.624 µM; in assay [2], greater than 100 µM. Besides, the inhibition at 1 µM in assay [3] (test concentration of 1 μM, read-out: HER-2 percent inhibition) was found to be 49%.

`N#Cc1c(N2CCOCC2)nc2sc(C(=O)Nc3ccc(CN4CCOCC4)cc3)c3c2c1N(c1c(Cl)ccc2c1OCO2)C(=O)N3` [Cpd 8, 5-(5-chloro-benzo[1,3]dioxol-4-yl)-6-cyano-7-morpholin-4-yl-4-oxo-4,5-dihydro-3H-1-thia-3,5,8-triaza-acenaphthylene-2-carboxylic acid (4-morpholin-4-ylmethyl-phenyl)-amide]: the inhibition at 2 µM in assay [1] was -6%. Further, the IC50 is 14.1 µM in assay [2] and roughly 100 µM in assay [3].

`CCOC(=O)c1sc2nc(N3CCOCC3)c(C#N)c3c2c1NC(=O)N3c1c(Cl)ccc2c1OCO2` [Cpd 7, 5-(5-chloro-benzo[1,3]dioxol-4-yl)-6-cyano-7-morpholin-4-yl-4-oxo-4,5-dihydro-3H-1-thia-3,5,8-triaza-acenaphthylene-2-carboxylic acid ethyl ester]: the inhibition at 2 µM in assay [1] was -5%. Besides, the IC50 in assay [2] and in assay [3] was greater than 100 µM throughout.

On to `Cc1nc2sc(C(=O)Nc3ccc(CN4CCOCC4)cc3)c3c2c(c1C#N)N(c1c(Cl)ccc2c1OCO2)C(=O)N3` [Cpd 9, 5-(5-chloro-benzo[1,3]dioxol-4-yl)-6-cyano-7-methyl-4-oxo-4,5-dihydro-3H-1-thia-3,5,8-triaza-acenaphthylene-2-carboxylic acid (4-morpholin-4-ylmethyl-phenyl)-amide], for which the inhibition at 2 µM in assay [1] is 14%. The IC50 in assay [2] and in assay [3] was greater than 10 µM throughout.

For the compound `COc1cc(N2C(=O)Nc3c(C(=O)Nc4ccc(CCN5CCOCC5)cc4)sc4ncc(C#N)c2c34)c(Cl)cc1Cl` [Cpd 6, 6-cyano-5-(2,4-dichloro-5-methoxy-phenyl)-4-oxo-4,5-dihydro-3H-1-thia-3,5,8-triaza-acenaphthylene-2-carboxylic acid [4-(2-morpholin-4-yl-ethyl)-phenyl]-amide], in assay [1], the inhibition at 2 µM was 7%. Further, the values for the IC50 in assay [2] and in assay [3] were greater than 100 µM and roughly 100 µM, respectively.

On to `N#Cc1cnc2sc(C(=O)Nc3ccc(CCN4CCCCC4)cc3)c3c2c1N(c1c(Cl)ccc2c1OCO2)C(=O)N3` [Cpd 11, 5-(5-chloro-benzo[1,3]dioxol-4-yl)-6-cyano-4-oxo-4,5-dihydro-3H-1-thia-3,5,8-triaza-acenaphthylene-2-carboxylic acid [4-(2-piperidin-1-yl-ethyl)-phenyl]-amide], for which the IC50 was 1.6 µM in assay [1], greater than 100 µM in assay [2] and 2.91 µM in assay [3].

Regarding `CCOC(=O)c1sc2nc(-c3cc(F)ccc3Cl)c(C#N)c3c2c1NC(=O)N3c1ccncc1` [Cpd 15, 7-(2-chloro-5-fluoro-phenyl)-6-cyano-4-oxo-5-pyridin-4-yl-4,5-dihydro-3H-1-thia-3,5,8-triaza-acenaphthylene-2-carboxylic acid ethyl ester], the inhibition at 2 µM in assay [1] was 6%. Further, the IC50 in assay [2] and in assay [3] was greater than 100 µM throughout.

As for `CN(C)C1CCN(C(=O)c2sc3ncc(C#N)c4c3c2NC(=O)N4c2c(Cl)ccc3c2OCO3)CC1` [Cpd 41, 5-(5-chloro-benzo[1,3]dioxol-4-yl)-2-(4-dimethylamino-piperidine-1-carbonyl)-4-oxo-4,5-dihydro-3H-1-thia-3,5,8-triaza-acenaphthylene-6-carbonitrile], the inhibition at 2 µM in assay [1] stood at 7%. Further, the IC50 in assay [2] was greater than 100 µM; in assay [3], 13.5 µM.

With `CN1CCN(CCc2ccc(NC(=O)c3sc4ncc(C#N)c5c4c3NC(=O)N5c3c(Cl)ccc4c3OCO4)cc2)CC1` [Cpd 12, 5-(5-chloro-benzo[1,3]dioxol-4-yl)-6-cyano-4-oxo-4,5-dihydro-3H-1-thia-3,5,8-triaza-acenaphthylene-2-carboxylic acid {4-[2-(4-methyl-piperazin-1-yl)-ethyl]-phenyl}-amide], the values for the IC50 in assay [1], in assay [2] and in assay [3] were 2.7 µM, greater than 100 µM and 5.55 µM, respectively.

In the case of `N#Cc1cnc2sc(C(=O)Nc3ccc(CN4CCOCC4)cc3)c3c2c1N(c1c(Cl)ccc2c1OCO2)C(=O)N3` [Cpd 4, 5-(5-chloro-benzo[1,3]dioxol-4-yl)-6-cyano-4-oxo-4,5-dihydro-3H-1-thia-3,5,8-triaza-acenaphthylene-2-carboxylic acid (4-morpholin-4-ylmethyl-phenyl)-amide], the inhibition at 2 µM in assay [1] worked out at 36%. For the same compound, the results for the IC50 in assay [2] and in assay [3] were greater than 10 µM and 5.35 µM, respectively.
